Reference: ChEMBL document CHEMBL1157071, “Phenolic constituents of the aerial parts of Cimicifuga simplex and Cimicifuga japonica” (J Nat Prod, 2010)

Target: T1, Hyaluronidase-1 (Homo sapiens, UniProt Q12794)
T1 sequence (Q12794 whole entry): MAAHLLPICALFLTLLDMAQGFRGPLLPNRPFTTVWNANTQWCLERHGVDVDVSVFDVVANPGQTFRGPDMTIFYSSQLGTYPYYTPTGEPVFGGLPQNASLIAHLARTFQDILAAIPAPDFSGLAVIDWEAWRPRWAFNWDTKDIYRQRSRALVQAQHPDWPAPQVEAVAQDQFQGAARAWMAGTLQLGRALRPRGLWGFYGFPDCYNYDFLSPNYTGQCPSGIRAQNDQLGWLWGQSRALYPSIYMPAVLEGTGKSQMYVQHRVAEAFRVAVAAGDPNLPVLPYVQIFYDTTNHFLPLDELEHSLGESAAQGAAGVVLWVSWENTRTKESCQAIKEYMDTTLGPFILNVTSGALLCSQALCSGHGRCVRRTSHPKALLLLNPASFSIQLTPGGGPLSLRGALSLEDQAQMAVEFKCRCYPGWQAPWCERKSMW
Assay: Inhibition of hyaluronidase

Row | Structure (SMILES) | IC50 [µM]
1 | COc1cc(/C=C/C(=O)O)ccc1O [FERULATE] | > 2000
2 | O=C(/C=C/c1ccc(O)cc1)O[C@H](C(=O)O)[C@](O)(Cc1ccc(O)cc1)C(=O)O [CIMICIFUGIC ACID K] | 255
3 | O=C(O)/C=C/c1ccc(O)c(O)c1 [CAFFEIC ACID] | > 2000
4 | O=C(/C=C/c1ccc(O)c(O)c1)O[C@H](Cc1ccc(O)c(O)c1)C(=O)O [ROSMARINIC ACID] | 545

Stronger by IC50, values ahead:

Row | IC50 [µM] | Structure (SMILES)
5 | 173 | O=C(/C=C/c1ccc(O)c(O)c1)O[C@H](C(=O)O)[C@](O)(Cc1ccccc1)C(=O)O [CIMICIFUGIC ACID M]
6 | 120 | COc1ccc(/C=C\C(=O)O[C@H](C(=O)O)[C@](O)(Cc2ccc(O)c(O)c2)C(=O)O)cc1OC [CIMICIFUGIC ACID N]
7 | 102 | COc1ccc(/C=C/C(=O)O[C@H](C(=O)O)[C@](O)(Cc2ccc(O)cc2)C(=O)O)cc1OC [CIMICIFUGIC ACID L]
